These results are taken from patent US11339153B2, “Compounds useful in modulating the farnesoid X receptor and methods of making and using the same” (Inorbit Therapeutics AB, priority 2018, dated 2022).

Series [1] has as its target T1, Human FXR receptor (NR1H4) (Homo sapiens, UniProt Q96RI1).
T1 sequence (Q96RI1 1-486): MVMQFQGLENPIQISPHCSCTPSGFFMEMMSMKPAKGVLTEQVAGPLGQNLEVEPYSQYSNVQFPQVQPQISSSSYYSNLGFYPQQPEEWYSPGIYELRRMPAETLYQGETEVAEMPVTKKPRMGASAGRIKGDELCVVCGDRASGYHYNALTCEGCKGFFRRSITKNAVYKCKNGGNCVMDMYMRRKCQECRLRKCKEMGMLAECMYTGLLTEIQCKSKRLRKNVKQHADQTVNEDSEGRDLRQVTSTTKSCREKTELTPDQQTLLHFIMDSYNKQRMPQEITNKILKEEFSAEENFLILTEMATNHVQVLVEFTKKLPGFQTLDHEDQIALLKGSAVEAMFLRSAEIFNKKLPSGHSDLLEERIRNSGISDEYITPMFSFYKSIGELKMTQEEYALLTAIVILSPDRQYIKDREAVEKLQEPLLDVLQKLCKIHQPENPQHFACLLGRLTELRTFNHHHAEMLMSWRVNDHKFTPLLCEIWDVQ
Put plainly: Human Farnesoid X Receptor (NR1H4, FXR) Reporter Assay (Indigo Bioscience kit, luciferase). The format is cell-based. The settings on record: for EC50: Human FXR (NR1H4) reporter assay, 22-24 h incubation; for Efficacy (%): normalized to GW4064 set as 100%. From the text:
Human Farnesoid X Receptor (NR1H4, FXR) Reporter Assay
Determination of a ligand mediated Ga14 promoter driven transactivation to quantify ligand binding mediated activation of FXR. A FXR Reporter Assay kit was purchased from Indigo Bioscience (#IB00601-32) to determine the potency and efficacy of compounds that can induce FXR activation. The nuclear receptor assay system utilizes non-human mammalian cells engineered to provide constitutive high level expression of Human FXR receptor (NR1H4), a ligand-dependent transcription factor. The reporter cells include luciferase reporter gene functionality linked to an FXR-response promoter. Quantifying changes in luciferase expression in the treated reporter cells provides a sensitive surrogate measure of the changes in FXR activity.
The reporter cells incorporate the cDNA encoding beetle luciferase, a protein that catalyses the mono-oxidation of D-luciferin in a Mg^2+ dependent reaction that consumes O2 and ATP as co-substrates, yielding the products Oxylucifern, AMP, PPi, CO2 and photon (light) emission. Luminescence intensity of the reaction is quantified using a luminometer, and is reported in terms of Relative Light Units (RLU's).
The assay was performed according to the manufacturer's instructions. In brief, the test compounds were weighed and dissolved in phosphate buffer solution as a 10 mM stock and diluted to the appropriate concentration using Compound Screening Medium (CSM). The frozen reporter cells were thawed and suspended in Cell Recovery Medium at 37° C. The compounds were then immediately added to the cell plate and the plate was placed into a 37° C., humidified CO2 incubator for 22-24 h. After incubation, the media was carefully removed, Luciferase detection solution was added and the plate read in a Luminometer. The data was calculated as per kit instructions, with increases in luminescence being directly proportional to increases in compound agonist activity.
(A reporter such as luciferase makes a cellular process visible.)

Series [2] in a line: Metabolism in human microsomes. The format is in vitro ADME. The note with it: 37° C.; for % remaining @ 45 mins of incubation with UDPGA: co-factor UDPGA only; for % remaining @ 45 mins of incubation with UDPGA and NADPH: co-factors UDPGA and NADPH. The method, then:
Metabolism in Human Microsomes
Microsomal mixes (247.5 μL) of human microsomes (1250 μL, 4 mg/ml), potassium phosphate buffer (1250 μL), alamethecin (12.5 μL, 5 mg/ml) and cofactors Nicotinamide Adenine Dinucleotide Phosphate NADPH (1250 μL, 4 mM)/uridine 5′-diphospho-glucuronic acid UDPGA (1250 μL, 4 mM) or UDPGA only were loaded onto a shaker for 10 minutes. The test compound (2.5 μL, 100 μM) was then separately added to both microsomal mixes (i.e., one mix with NADPH and one mix without NADPH), incubated at 37° C. and sampled at predetermined time points. Analysis was performed using a AB SCIEX QTRAP 4500 LC-MS/MS, a Kinetex C18, 50*4.6 mm, 5 μm column and eluting with 10 mM Ammonium Acetate/Methanol.
Table 2 summarizes the % of compound remaining after 45 minutes of incubation with human microsomes either in the presence of co-factors UDPGA and NADPH or UDPGA only.

Series [3] is described as follows: Metabolic identification in hepatocytes (human). The class given is in vitro ADME. The method, then: (§1) Metabolic Identification in Hepatocytes.
(§2) A 10 mM stock of test compound from Example 4 (sodium 2-(3-((5-cyclopropyl-3-(2-(trifluoromethoxy)phenyl)isoxazol-4-yl)methoxy)-8-azabicyclo[3.2.1]octan-8-yl)-4-fluorobenzo[d]thiazole-6-sulfinate) was prepared in DMSO. 20 μM of final working stock was then prepared by diluting 4 μL of 10 mM stock in 1996 μL of Krebs-Hensleit buffer. 200 μL of hepatocyte cell suspension (2×10^6 cells/mL) was added to TPP 48 well plate and preincubated for 30 min@37° C. in incubator. 200 μL of 20 μM working stock of test compound was added to the cell suspension and incubated in an incubator on vibramax at a shaking speed of 500 rpm. For the 0 min sample, 25 μL of hepatocyte suspension was precipitated with 200 μL of acetonitrile and 25 μL of 20 μM test compound was added. The reaction was stopped at 15, 30, 60, 90, 120 min by precipitating 50 μL of incubation mixture with 200 μL of acetonitrile. The samples were vortexed for 5 min at 1200 rpm and centrifuged at 4000 rpm for 10 min. The supernatant was separated, diluted 2 fold with water and analysed using a HPLC (Shimadzu SIL HTS) and mass spectrometer (5500 Qtrap). Acetonitrile and 0.1% formic acid in Milli-q-water were used as the mobile phase, using a column of either Waters Xbridge C18, 250×3.0 mm, 5.0μ particle size or Phenomnex kinetex 5μ EVO C18 100 A, 50×4.6 mm 5.0μ particle size.
Table 3 summarizes the major metabolites observed when the compound of Example 4 of the invention was incubated in human, dog or mouse hepatocytes.

Series [4] is described as follows: Metabolic identification in hepatocytes (dog). The format is in vitro ADME. The procedure:
as §1
as §2, with “size. […]” for “size.”

Series [5] in a line: Metabolic identification in hepatocytes (mouse). The format is in vitro ADME. The method, then:
as §1
as §2, with “size. […]” for “size.”

As a reminder, the EC50 is the concentration at which the effect is half-maximal. The low end stands for greater potency, the high end for weaker potency. For `O=S([O-])c1cc(F)c2nc(N3[C@@H]4CC[C@H]3C[C@@H](OCc3c(-c5ccccc5OC(F)(F)F)noc3C3CC3)C4)sc2c1.[Na+]` [Example 4, Sodium 2-(3-((5-cyclopropyl-3-(2-(trifluoromethoxy)phenyl)isoxazol-4-yl)methoxy)-8-azabicyclo[3.2.1]octan-8-yl)-4-fluorobenzo[d]thiazole-6-sulfinate], in series [1], the EC50 is less than 0.5 µM and the “Efficacy (%)” value came to 94%. Further, in series [2], the “% remaining @ 45 mins of incubation with UDPGA” value was 94%; the “% remaining @ 45 mins of incubation with UDPGA and NADPH” value was found to be 52%. In series [3], the Acyl-Glucuronide entry was “No”; the “Observed Major Metabolites” value is “Hydroxy, Alkenyl and Alkenyl-hydroxy”. Moreover, the “major metabolites formed (MS/MS spectra, FIG. 1)” value in series [3] (incubation for 120 mins) is on record as “consistent with oxidative metabolism to give the corresponding hydroxy compound”. Moreover, in series [4], the Acyl-Glucuronide result was “No” and the “Observed Major Metabolites” value is recorded as “Alkenyl-hydroxy”. In series [5], the Acyl-Glucuronide result was “No”; the “Observed Major Metabolites” value is “Hydroxy, Di-hydroxy and Alkenyl-hydroxy”.

For the compound `O=S([O-])c1cccc(N2CC(O)(c3ccc(OCc4c(-c5c(Cl)cccc5Cl)noc4C4CC4)cc3Cl)C2)c1.[Na+]` [Example 6, Sodium 3-(3-(2-chloro-4-((5-cyclopropyl-3-(2,6-dichlorophenyl)isoxazol-4-yl)methoxy)phenyl)-3-hydroxyazetidin-1-yl)benzenesulfinate], in series [1], the EC50 was greater than 5 µM and the “Efficacy (%)” value turned out to be 96%. For the same compound, in series [2], the “% remaining @ 45 mins of incubation with UDPGA” value was determined as 92%; the “% remaining @ 45 mins of incubation with UDPGA and NADPH” value is given as 26%.

With `O=S(O)c1ccc(C2CC(O)(c3ccc(OCc4c(-c5c(Cl)cccc5Cl)noc4C4CC4)cc3Cl)C2)cc1` (stereo not drawn) [Example 7, Sodium 4-(3-(2-chloro-4-((5-cyclopropyl-3-(2,6-dichlorophenyl)isoxazol-4-yl)methoxy)phenyl)-3-hydroxycyclobutyl)benzenesulfinic acid], in series [1], the EC50 is greater than 5 µM and the “Efficacy (%)” value turned out to be 89%. For the same compound, in series [2], the “% remaining @ 45 mins of incubation with UDPGA” value is 95%; the “% remaining @ 45 mins of incubation with UDPGA and NADPH” value was found to be 38%.

As for `O=S(O)c1ccc(C2CC2c2ccc(OCc3c(-c4c(Cl)cccc4Cl)noc3C3CC3)cc2Cl)cc1` (stereo not drawn) [Example 8, Sodium 4-(2-(2-chloro-4-((5-cyclopropyl-3-(2,6-dichlorophenyl)isoxazol-4-yl)methoxy)phenyl)cyclopropyl)benzenesulfinate], in series [1], the EC50 was in the range of 0.5 to 5 µM and the “Efficacy (%)” value stood at 127%.
